Measurements: US6107284A, “Water-soluble derivatives of epipodophyllotoxin, process for their preparation, their use as medicinal products and their intended use in anti-cancer treatments” (Pierre Fabre Medicament, priority 1994, dated 2000)
Where a name gives a salt, the structure may show the parent alone. Read-outs that look alike come from different tables or passages of the source.

Experiments:
[1] = Measurement of the water-solubility of the salts; format: physicochemical; settings: read-out: % solubility (weight/volume) expressed in g per 100 ml of water
Source text: The amorphous or crystalline salts are obtained by simple freeze-drying. [drawing 4] Measurement of the Water-Solubility
The solubility in water of the salts of the phosphate or carboxylate derivatives by addition of physiologically acceptable organic amines such as, for example, N-methylglucamine, triethanolamine or lysine, or the salts with inorganic cations such as sodium, obtained in lyophilized form or by extemporaneous addition of a base to the free acid compound, gave the following results by way of example.

topoisomerase II = topoisomerase II (Cricetulus griseus, UniProt P41515); experiment: Test of inhibition of the activity of topoisomerase II; format: biochemical; settings: for IC50: in vitro, read-out: Test of inhibition of the activity of topoisomerase II (ED50 M)
Source text: Measurement of the inhibition of the activity of topoisomerase II is made according to the procedure described in the literature: "Nuclear topoisomerase II levels correlate with the sensitivity of mammalian cells to intercalating Agents and Epipodophyllotoxins", I. D. Hickson et al., J. Biol. Chem. (1988), 263, 17724.

[2] = background, known drugs; cited from earlier work

Sequence of topoisomerase II (P41515 whole entry): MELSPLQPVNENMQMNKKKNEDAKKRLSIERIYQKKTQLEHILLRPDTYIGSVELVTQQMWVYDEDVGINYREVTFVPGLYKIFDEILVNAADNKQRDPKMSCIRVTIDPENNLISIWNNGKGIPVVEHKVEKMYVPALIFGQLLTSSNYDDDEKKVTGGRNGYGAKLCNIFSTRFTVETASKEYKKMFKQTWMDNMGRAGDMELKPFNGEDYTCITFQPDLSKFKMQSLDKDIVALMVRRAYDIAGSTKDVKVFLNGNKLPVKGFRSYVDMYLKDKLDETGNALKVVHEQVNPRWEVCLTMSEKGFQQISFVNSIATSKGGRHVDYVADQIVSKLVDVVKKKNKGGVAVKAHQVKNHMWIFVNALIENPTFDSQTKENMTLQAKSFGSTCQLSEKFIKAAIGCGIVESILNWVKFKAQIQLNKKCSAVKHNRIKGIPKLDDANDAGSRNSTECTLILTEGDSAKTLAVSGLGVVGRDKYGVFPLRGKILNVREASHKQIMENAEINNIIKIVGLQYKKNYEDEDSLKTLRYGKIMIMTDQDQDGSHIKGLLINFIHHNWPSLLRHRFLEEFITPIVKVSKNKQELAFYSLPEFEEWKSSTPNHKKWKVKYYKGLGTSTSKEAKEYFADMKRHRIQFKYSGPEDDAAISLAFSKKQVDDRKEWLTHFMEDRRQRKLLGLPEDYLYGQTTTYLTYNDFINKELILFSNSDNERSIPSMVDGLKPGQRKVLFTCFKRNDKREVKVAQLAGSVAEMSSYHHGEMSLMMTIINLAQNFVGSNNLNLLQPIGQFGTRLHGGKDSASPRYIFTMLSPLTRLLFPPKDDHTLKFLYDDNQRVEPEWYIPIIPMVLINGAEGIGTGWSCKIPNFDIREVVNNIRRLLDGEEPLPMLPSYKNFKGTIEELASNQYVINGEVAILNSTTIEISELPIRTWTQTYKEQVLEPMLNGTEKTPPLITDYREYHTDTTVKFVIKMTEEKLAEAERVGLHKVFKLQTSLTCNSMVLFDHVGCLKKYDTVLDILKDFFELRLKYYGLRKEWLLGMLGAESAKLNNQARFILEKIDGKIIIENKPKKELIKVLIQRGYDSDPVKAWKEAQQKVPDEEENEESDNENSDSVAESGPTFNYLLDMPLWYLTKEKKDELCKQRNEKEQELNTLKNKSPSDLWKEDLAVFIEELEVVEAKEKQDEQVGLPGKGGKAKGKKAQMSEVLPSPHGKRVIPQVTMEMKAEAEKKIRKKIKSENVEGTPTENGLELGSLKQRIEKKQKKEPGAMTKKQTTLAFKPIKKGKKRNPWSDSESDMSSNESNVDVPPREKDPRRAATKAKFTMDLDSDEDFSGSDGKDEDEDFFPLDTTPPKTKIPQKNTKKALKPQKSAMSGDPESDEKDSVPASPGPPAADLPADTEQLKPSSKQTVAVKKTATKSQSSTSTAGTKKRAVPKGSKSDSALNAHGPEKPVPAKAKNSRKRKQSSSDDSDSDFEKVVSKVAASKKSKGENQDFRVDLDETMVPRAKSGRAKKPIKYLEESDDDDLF

**Q.** For `COc1cc([C@@H]2c3cc4c(cc3[C@@H](O[C@@H]3O[C@@H]5CO[C@@H](C)O[C@H]5[C@H](OC(=O)COc5ccc(F)cc5)[C@H]3OC(=O)COc3ccc(F)cc3)[C@H]3COC(=O)[C@H]23)OCO4)cc(OC)c1OP(=O)(O)O` [Example 4, 4'-demethyl-4-O-(2,3-bis(4-fluorophenoxyacetyl)-4,6-ethylidene-β-D-glucosyl)epipodophyllotoxin-4'-deoxy-4'-phosphate bis(N-methylglucamine) Salt], which solubility ([1]; N-methylglucamine salt) is on record?
**A.** 100 mg/mL

**Q.** What about the IC50 (topoisomerase II) of the same compound?
**A.** 1.8 µM

**Q.** Which results are given for `COc1cc([C@@H]2c3cc4c(cc3[C@@H](O[C@@H]3O[C@@H]5CO[C@@H](C)O[C@H]5[C@H](OC(=O)COc5ccc(OC(F)(F)F)cc5)[C@H]3OC(=O)COc3ccc(OC(F)(F)F)cc3)[C@H]3COC(=O)[C@H]23)OCO4)cc(OC)c1OP(=O)(O)O` [Example 3, 4'-demethyl-4-O-(2,3-bis-(4-trifluoromethoxyphenoxyacetyl)-4,6-ethylidene-β-D-gluocosyl)epipodophyllotoxin-4'-deoxy-4'-phosphate, bis(N-methylglucamine) Salt]?
**A.** solubility ([1]; N-methylglucamine salt): 50 mg/mL; IC50 (topoisomerase II): 0.32 µM

**Q.** With `COc1cc([C@@H]2c3cc4c(cc3[C@@H](O[C@@H]3O[C@@H]5CO[C@@H](C)O[C@H]5[C@H](OC(=O)COc5ccc(Cl)cc5)[C@H]3OC(=O)COc3ccc(Cl)cc3)[C@H]3COC(=O)[C@H]23)OCO4)cc(OC)c1OP(=O)(O)O` [Example 27, 4'-demethyl-4'-deoxy-4'-phosphate-4-O-(2,3-bis(4-chlorophenoxyacetyl)-4,6-ethylidene-β-D-glucosyl)epipodophyllotoxin] as the compound, how does the solubility ([1]; N-methylglucamine salt) read?
**A.** 5 mg/mL

**Q.** And the IC50 (topoisomerase II)?
**A.** 0.76 µM

**Q.** With `COc1cc([C@@H]2c3cc4c(cc3[C@@H](O[C@@H]3O[C@@H]5CO[C@@H](C)O[C@H]5[C@H](OC(=O)COc5ccc(OP(=O)(O)O)cc5)[C@H]3OC(=O)COc3ccc(OP(=O)(O)O)cc3)[C@H]3COC(=O)[C@H]23)OCO4)cc(OC)c1OP(=O)(O)O` [Example 7, 4'-demethyl-4-O-(2,3-bis(4-phosphonooxyphenoxyacetyl)-4,6-ethylidene-β-D-glucosyl)epipodophyllotoxin-4'-deoxy-4'-phosphate] as the compound, how does the solubility ([1]; N-methylglucamine salt) read?
**A.** 100 mg/mL

**Q.** What about the IC50 (topoisomerase II) of the same compound?
**A.** 56 µM

**Q.** Which solubility ([1]; N-methylglucamine salt) does the source give for `COc1cc([C@@H]2c3cc4c(cc3[C@@H](O[C@@H]3O[C@@H]5CO[C@@H](C)O[C@H]5[C@H](OC(=O)COc5ccccc5)[C@H]3OC(=O)COc3ccccc3)[C@H]3COC(=O)[C@H]23)OCO4)cc(OC)c1OP(=O)(O)O` [Example 1, 4'-demethyl-4-O-(2,3-bisphenoxyacetyl-4,6-ethylidene-β-D-glucosyl)epipodophyllotoxin-4'-deoxy-4'-phosphate] here?
**A.** 5 mg/mL

**Q.** And the IC50 (topoisomerase II)?
**A.** 5.6 µM

**Q.** With `COc1cc([C@@H]2c3cc4c(cc3[C@@H](O[C@@H]3O[C@@H]5CO[C@@H](C)O[C@H]5[C@H](OC(=O)COc5ccc(OCC(=O)O)cc5)[C@H]3OC(=O)COc3ccc(OCC(=O)O)cc3)[C@H]3COC(=O)[C@H]23)OCO4)cc(OC)c1OC(=O)COc1ccc(OCC(=O)O)cc1` [Example 26, 4'-demethyl-4'-carboxymethoxyphenoxyacetyl-4-O-(2,3-bis(4-carboxymethoxyphenoxyacetyl)-4,6-ethylidene-β-D-glucosyl)epipodophyllotoxin] as the compound, how does the solubility ([1]; N-methylglucamine salt) read?
**A.** 100 mg/mL

**Q.** And the IC50 (topoisomerase II)?
**A.** 5.6 µM

**Q.** With `COc1cc([C@@H]2c3cc4c(cc3[C@@H](O[C@@H]3O[C@@H]5CO[C@@H](c6cccs6)O[C@H]5[C@H](O)[C@H]3O)[C@H]3COC(=O)[C@H]23)OCO4)cc(OC)c1O` [teniposide] as the compound, how does the “water-solubility (in words)” value [2] read?
**A.** lack of water-solubility

**Q.** With `COc1cc([C@@H]2c3cc4c(cc3[C@@H](O[C@@H]3O[C@@H]5CO[C@@H](C)O[C@H]5[C@H](OC(=O)COc5ccc(OP(=O)(O)O)cc5)[C@H]3OC(=O)COc3ccc(OP(=O)(O)O)cc3)[C@H]3COC(=O)[C@H]23)OCO4)cc(OC)c1OC(=O)COc1ccc(OP(=O)(O)O)cc1` [Example 6, 4'-(4-phosphonooxyphenoxyacetyl)-4'-demethyl-4-O-(2,3-bis(4-phosphonooxyphenoxyacetyl)-4,6-ethylidene-β-D-glucosyl)epipodophyllotoxin] as the compound, how does the solubility ([1]; N-methylglucamine salt) read?
**A.** 100 mg/mL

**Q.** What about the solubility ([1]; Sodium salt) of the same compound?
**A.** 10 mg/mL

**Q.** And the solubility ([1]; lysine salt)?
**A.** 200 mg/mL

**Q.** And the solubility ([1]; triethanolamine salt)?
**A.** 200 mg/mL

**Q.** What about the IC50 (topoisomerase II) of the same compound?
**A.** 0.32 µM

**Q.** Which IC50 (topoisomerase II) does the source give for `COc1cc([C@@H]2c3cc4c(cc3[C@@H](O[C@@H]3O[C@@H]5CO[C@@H](C)O[C@H]5[C@H](O)[C@H]3O)[C@H]3COC(=O)[C@H]23)OCO4)cc(OC)c1O` [Etoposide, reference compound] here?
**A.** 56 µM

**Q.** And the “water-solubility (in words)” value [2]?
**A.** lack of water-solubility

**Q.** With `COc1cc([C@@H]2c3cc4c(cc3[C@@H](O[C@@H]3O[C@@H]5CO[C@@H](C)O[C@H]5[C@H](OC(=O)COc5ccc(O)cc5)[C@H]3OC(=O)COc3ccc(O)cc3)[C@H]3COC(=O)[C@H]23)OCO4)cc(OC)c1OC(=O)N(CC(=O)O)CC(=O)O` [Example 11, 4'-(dicarboxymethylaminocarbonyl)-4'-demethyl-4-O-(2,3-bis(p-hydroxyphenoxyacetyl)-4,6-ethylidene-β-D-glucosyl)epipodophyllotoxin] as the compound, how does the solubility ([1]; N-methylglucamine salt) read?
**A.** 100 mg/mL

**Q.** What about the IC50 (topoisomerase II) of the same compound?
**A.** 5.6 µM

**Q.** Which IC50 (topoisomerase II) does the source give for `COc1cc([C@@H]2c3cc4c(cc3[C@@H](O[C@@H]3O[C@@H]5CO[C@@H](C)O[C@H]5[C@H](O)[C@H]3O)[C@H]3COC(=O)[C@H]23)OCO4)cc(OC)c1OP(=O)(O)O` [Etopofos, reference compound] here?
**A.** > 100 µM

**Q.** And the “in vitro activity compared with etoposide (in words)” value (topoisomerase II; relative to etoposide)?
**A.** loss of in vitro activity

**Q.** With `COc1cc([C@@H]2c3cc4c(cc3[C@@H](O[C@@H]3O[C@@H]5CO[C@@H](C)O[C@H]5[C@H](OC(=O)CS(=O)(=O)c5ccccc5)[C@H]3OC(=O)CS(=O)(=O)c3ccccc3)[C@H]3COC(=O)[C@H]23)OCO4)cc(OC)c1OP(=O)(O)O` [Example 21, 4'-demethyl-4'-deoxy-4'-phosphate-4-O-(2,3-bis(phenylsulfonylacetyl)-4,6-ethylidene-β-D-glucosyl)epipodophyllotoxin] as the compound, how does the solubility ([1]; N-methylglucamine salt) read?
**A.** 100 mg/mL

**Q.** And the IC50 (topoisomerase II)?
**A.** 5.6 µM
